Experimental data: US20250243488A1, “METHODS OF MODULATING PROGRANULIN EXPRESSION USING ANTISENSE OLIGONUCLEOTIDES TARGETING REGULATORY RNAS” (Camp4 Therapeutics Corporation, priority 2022, published 2025)
Oligonucleotides are written 5' to 3', each unit as a sugar letter and its base; * is a phosphorothioate linkage, no mark a phosphodiester; rarer units and linkages stand in square brackets, end groups in braces. Plain capitals give the bases only. e = 2'-O-(2-methoxyethyl) (MOE); l = locked nucleic acid (LNA); [5mC] = 5-methylcytosine; d = 2'-deoxy (DNA)

System: GRN mRNA
Test: GRN mRNA qPCR in SK-N-AS cells transfected with ASOs
Format: cell-based, human
Settings: SK-N-AS; for 120 nM FC (GRN mRNA) / hGRN mRNA FC: 120 nM
Method in brief: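 Human neuroblastoma SK-N-AS cells transfected with ASOs at increasing concentrations (20 to 160 nM in initial titrations); GRN mRNA quantified by qPCR after 48 hours. Normalized to GAPDH and PPIA, fold change relative to steric non-targeting control ASO(s) (sNTC/CO-1589, with CO-3772 and CO-1929 in some series).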

[1] = Table 7, normalized to CO-1589 (sNTC1)
[2] = Table 12, normalized to CO-1589
[3] = Table 3, normalized to CO-3772 and CO-1589 (sNTC1)
[4] = Table 11, 48 hours, normalized to CO-1589
[5] = Table 13, normalized to CO-1589
[6] = Table 9, 48 hours post-transfection, normalized to CO-1589
[7] = Table 8, normalized to CO-1589 (sNTC1)

Substance: CO-5267: CO-3423 with additional LNA tiling and PO bond modifications (antisense GGACTTGGGAGTGGTGACTG; 2'-MOE, mixed PS/PO, 5-methylcytosine; listed as RNA; modified_base 1..9: mod_base = OTHER; note = Phosphorothioate linkage; modified_base 17..20: mod_base = OTHER; modified_base 1..20: mod_base = OTHER; note = 2'-O-(2-methoxyethyl) ribonucleotide; modified_base 4)
- 7.5 nM FC (GRN mRNA) [1]: 1.0 FC
- 13 nM FC (GRN mRNA) [1]: 1.0 FC
- 30 nM FC (GRN mRNA) [1]: 1.2 FC
- 60 nM FC (GRN mRNA) [1]: 1.7 FC
- 120 nM FC (GRN mRNA) [1]: 1.9 FC
- 150 nM FC (GRN mRNA) [1]: 2.3 FC

Substance: CO-6386: ASO based on parent ASO CO-3462 (antisense eG*e[5mC]*eG*eA*eG*e[5mC]*e[5mC]*eA*eG*e[5mC]*eT*e[5mC]*eA*eG*eT*eA*eG*e[5mC]*eT*e[5mC])
- 30 nM FC (GRN mRNA) [2]: 1.2 FC
- 60 nM FC (GRN mRNA) [2]: 0.9 FC
- 120 nM FC (GRN mRNA) [2]: 1.1 FC

Substance: CO-4360: LNA/PS modified ASO based on CO-3423 (antisense eG*eG*eA*e[5mC]*lT*eT*eG*eG*eG*lA*eG*eT*eG*eG*lT*eG*eA*e[5mC]*eT*eG)
- 30 nM FC (GRN mRNA) [3]: 1.4 FC
- 60 nM FC (GRN mRNA) [3]: 1.8 FC
- 120 nM FC (GRN mRNA) [3]: 2.5 FC

Substance: CO-6434: ASO designed to target an intragenic enhancer RNA (eRNA) (eT*e[5mC]*e[5mC]*eG*eA*eT*e[5mC]*eA*e[5mC]*e[5mC]*eT*eG*e[5mC]*eA*e[5mC]*eT*eG*e[5mC]*eT*eG)
- hGRN mRNA FC [4]: 0.9 FC

Substance: CO-6387: ASO based on parent ASO CO-3462 (antisense eT*eA*eG*eG*eA*dG*dA*dA*eT*d[5mC]*dG*e[5mC]*dT*dT*dT*eG*eG*eG*eA*eG)
- 30 nM FC (GRN mRNA) [2]: 1.3 FC
- 60 nM FC (GRN mRNA) [2]: 1.0 FC
- 120 nM FC (GRN mRNA) [2]: 1.1 FC

Substance: CO-6454: ASO designed to target an intragenic enhancer RNA (eRNA) (e[5mC]*e[5mC]*eA*eA*eG*eT*eG*eT*eA*eG*eG*eA*eA*eA*eA*eA*eG*eT*eT*eT)
- hGRN mRNA FC [4]: 1.0 FC

Substance: CO-6406: ASO based on parent ASO CO-3462 (antisense eG*eG*eT*eA*eG*dG*dA*lG*dA*dA*lT*d[5mC]*dG*l[5mC]*dT*dT*lT*dG*dG*eG*eA*eG*e[5mC]*eA)
- 30 nM FC (GRN mRNA) [2]: 1.4 FC
- 60 nM FC (GRN mRNA) [2]: 1.4 FC
- 120 nM FC (GRN mRNA) [2]: 1.7 FC

Substance: CO-6425: ASO based on parent ASOs CO-4363 and CO-4364 (eG*eG*eG*eA*e[5mC]*eT*eT*eG*eG*eG*eA*eG*eT*eG*eG*eT*eG*eA*e[5mC]*eT*eG*eA*eA*e[5mC])
- 30 nM FC (GRN mRNA) [5]: 0.9 FC
- 60 nM FC (GRN mRNA) [5]: 1.3 FC
- 120 nM FC (GRN mRNA) [5]: 1.3 FC

Substance: CO-6438: ASO designed to target an intragenic enhancer RNA (eRNA) (e[5mC]*eT*eA*e[5mC]*eT*eG*eA*eG*e[5mC]*e[5mC]*eT*eG*eG*eA*eA*eG*eT*eG*eA*e[5mC])
- hGRN mRNA FC [4]: 1.2 FC

Substance: CO-4632: ASO designed to target intergenic enhancers (eRNA) (antisense eT*eG*e[5mC]*eT*eA*eT*eG*e[5mC]*eA*eT*eT*eG*eA*eG*eT*eT*eT*eT*e[5mC]*e[5mC])
- hGRN mRNA FC [6]: 1.1 FC

Substance: CO-4605: ASO designed to target intergenic enhancers (eRNA) (antisense e[5mC]*eG*eG*eG*eA*eG*eA*e[5mC]*eA*eG*eG*eA*eA*eG*eG*e[5mC]*eT*eT*eA*eA)
- hGRN mRNA FC [6]: 1.2 FC

Substance: CO-4615: ASO designed to target intergenic enhancers (eRNA) (antisense e[5mC]*eA*eT*eT*eT*e[5mC]*eA*e[5mC]*eA*e[5mC]*eT*eT*eG*eT*eA*eT*eG*eA*eG*e[5mC])
- hGRN mRNA FC [6]: 1.0 FC

Substance: CO-4354: LNA/PS modified ASO based on CO-3423 (antisense eG*eG*eA*l[5mC]*eT*lT*eG*lG*eG*lA*eG*lT*eG*lG*eT*lG*eA*l[5mC]*eT*eG)
- 30 nM FC (GRN mRNA) [3]: 1.6 FC
- 60 nM FC (GRN mRNA) [3]: 1.9 FC
- 120 nM FC (GRN mRNA) [3]: 1.9 FC

Substance: CO-5288: ASO based on CO-3463 incorporating additional LNA modifications (antisense lG*lG*eA*lT*lA*eG*lG*eA*lT*eA*lG*eG*lA*eG*l[5mC]*eG*lA*eG*l[5mC]*l[5mC])
- GRN mRNA upregulation as compared to control ASO CO-1589 (Table 8 series): 2 fold
- 7.5 nM FC (GRN mRNA) [7]: 1.3 FC
- 13 nM FC (GRN mRNA) [7]: 1.5 FC
- 30 nM FC (GRN mRNA) [7]: 1.5 FC
- 60 nM FC (GRN mRNA) [7]: 1.9 FC
- 120 nM FC (GRN mRNA) [7]: 1.9 FC
- 150 nM FC (GRN mRNA) [7]: 2.1 FC

Substance: CO-6396: ASO based on parent ASO CO-3462 (antisense eT*eA*eG*lG*eA*eG*eA*lA*eT*e[5mC]*eG*l[5mC]*eT*eT*eT*lG*eG*eG*eA*eG)
- 30 nM FC (GRN mRNA) [2]: 1.4 FC
- 60 nM FC (GRN mRNA) [2]: 1.9 FC
- 120 nM FC (GRN mRNA) [2]: 1.9 FC

Substance: CO-4639: ASO designed to target intergenic enhancers (eRNA) (antisense eG*eA*eA*eA*eT*eT*eT*eA*eT*eG*e[5mC]*eG*eG*e[5mC]*e[5mC]*eA*e[5mC]*eT*eG*eT)
- hGRN mRNA FC [6]: 1.1 FC

Substance: CO-6394: ASO based on parent ASO CO-3462 (antisense eT*eA*lG*eG*eA*lG*eA*eA*lT*e[5mC]*eG*l[5mC]*eT*eT*lT*eG*eG*lG*eA*eG)
- 30 nM FC (GRN mRNA) [2]: 1.1 FC
- 60 nM FC (GRN mRNA) [2]: 0.9 FC
- 120 nM FC (GRN mRNA) [2]: 1.3 FC

Substance: CO-4618: ASO designed to target intergenic enhancers (eRNA) (antisense eA*eT*eA*eG*eG*eT*e[5mC]*eA*eG*eG*eG*eA*eA*eT*eG*e[5mC]*e[5mC]*eG*e[5mC]*e[5mC])
- hGRN mRNA FC [6]: 1.3 FC

Substance: CO-6436: ASO designed to target an intragenic enhancer RNA (eRNA) (eT*eG*eT*e[5mC]*e[5mC]*e[5mC]*e[5mC]*eA*e[5mC]*eT*e[5mC]*eA*eG*eG*e[5mC]*e[5mC]*eA*e[5mC]*e[5mC]*eT)
- hGRN mRNA FC [4]: 1.1 FC

Substance: CO-4598: ASO designed to target intergenic enhancers (eRNA) (antisense eG*eT*eG*e[5mC]*eA*eA*eT*e[5mC]*eT*eG*eT*eG*eA*e[5mC]*e[5mC]*eT*eG*eT*eA*eA)
- hGRN mRNA FC [6]: 1.1 FC

Substance: CO-6519: ASO based on parent ASO CO-3462 (antisense eT*eA*eG*eG*eA*eGeAeAeTe[5mC]eGe[5mC]eTeTeTeGeGeG*eA*eG)
- 30 nM FC (GRN mRNA) [2]: 1.1 FC
- 60 nM FC (GRN mRNA) [2]: 1.0 FC
- 120 nM FC (GRN mRNA) [2]: 0.9 FC

Substance: CO-6418: ASO based on parent ASOs CO-4363 and CO-4364 (eG*eG*eA*e[5mC]*eT*lT*eG*eG*eG*eA*lG*eT*eG*eG*eT*lG*eA*e[5mC]*eT*eG*eA)
- 30 nM FC (GRN mRNA) [5]: 1.6 FC
- 60 nM FC (GRN mRNA) [5]: 1.6 FC
- 120 nM FC (GRN mRNA) [5]: 1.9 FC

Substance: CO-6452: ASO designed to target an intragenic enhancer RNA (eRNA) (eT*eG*eG*e[5mC]*eT*eG*e[5mC]*e[5mC]*e[5mC]*e[5mC]*eT*e[5mC]*eA*e[5mC]*eG*eT*eT*eT*eG*e[5mC])
- hGRN mRNA FC [4]: 1.4 FC

Substance: CO-4593: ASO designed to target intergenic enhancers (eRNA) (antisense eT*eT*eT*eT*eG*e[5mC]*e[5mC]*e[5mC]*eA*eG*e[5mC]*eG*e[5mC]*e[5mC]*e[5mC]*e[5mC]*eT*eT*eT*eA)
- hGRN mRNA FC [6]: 0.8 FC

Substance: CO-6409: ASO based on parent ASO CO-3462 (antisense eT*eA*eGeG*eA*eGeA*eA*eTe[5mC]*eG*e[5mC]eT*eT*eTeG*eG*eGeA*eG)
- 30 nM FC (GRN mRNA) [2]: 1.1 FC
- 60 nM FC (GRN mRNA) [2]: 1.1 FC
- 120 nM FC (GRN mRNA) [2]: 1.5 FC

Substance: CO-4616: ASO designed to target intergenic enhancers (eRNA) (antisense eA*eA*eG*eA*eA*eG*eG*e[5mC]*e[5mC]*eA*eA*eG*e[5mC]*eT*eG*eG*eT*eA*e[5mC]*e[5mC])
- hGRN mRNA FC [6]: 1.2 FC

Substance: CO-4608: ASO designed to target intergenic enhancers (eRNA) (antisense eT*eA*eG*eA*e[5mC]*eA*e[5mC]*eT*eT*e[5mC]*e[5mC]*eA*eG*e[5mC]*e[5mC]*e[5mC]*eA*e[5mC]*e[5mC]*eT)
- hGRN mRNA FC [6]: 1.1 FC
